The numbers were not newly measured in patent publication US7265128B2, “3-amino-4-phenylbutanoic acid derivatives as dipeptidyl peptidase inhibitors for the treatment or prevention of diabetes” (Merck & Co., Inc., priority 2003, dated 2007), which cites them from elsewhere.

In data set [1] the test system is rats. The note with it: survival doubled from day 7.
The test system of data set [2] is mouse. As to conditions: cyclophosphamide-induced neutropenia.
For data set [3], the target named is T1, DP-IV (Homo sapiens, UniProt P27487).
T1 construct: GRF is rapidly degraded in plasma to GRF[3-44]
T1 sequence (P27487 whole entry): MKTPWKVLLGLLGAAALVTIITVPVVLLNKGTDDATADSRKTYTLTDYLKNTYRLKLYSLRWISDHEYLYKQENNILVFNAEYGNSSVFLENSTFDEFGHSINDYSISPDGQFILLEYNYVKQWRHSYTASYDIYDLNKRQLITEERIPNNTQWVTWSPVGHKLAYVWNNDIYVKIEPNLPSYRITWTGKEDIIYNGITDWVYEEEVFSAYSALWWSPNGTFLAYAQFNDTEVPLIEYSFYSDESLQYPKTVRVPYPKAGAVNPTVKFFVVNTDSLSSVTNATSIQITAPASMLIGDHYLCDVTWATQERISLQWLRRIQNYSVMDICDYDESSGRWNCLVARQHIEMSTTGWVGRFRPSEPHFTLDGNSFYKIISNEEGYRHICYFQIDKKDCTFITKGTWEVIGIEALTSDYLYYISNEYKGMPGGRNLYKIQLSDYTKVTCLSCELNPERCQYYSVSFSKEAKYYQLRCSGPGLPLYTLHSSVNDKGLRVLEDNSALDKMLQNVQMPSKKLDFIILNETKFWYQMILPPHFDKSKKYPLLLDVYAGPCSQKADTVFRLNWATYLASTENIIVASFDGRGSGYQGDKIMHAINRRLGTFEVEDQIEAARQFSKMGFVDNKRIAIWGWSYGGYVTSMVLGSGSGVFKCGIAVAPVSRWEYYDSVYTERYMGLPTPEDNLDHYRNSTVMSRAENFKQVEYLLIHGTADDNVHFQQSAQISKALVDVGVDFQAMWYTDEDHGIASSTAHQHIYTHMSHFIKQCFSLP

With `CC(C)N1CCC(c2ccccc2)(c2ccccc2)CC1` [Prodipine, Pro-Pro-diphenyl-phosphonate], the cardiac allograft survival in data set [1] is on record as 14 day.

With `CC(C)[C@H](N)C(=O)N1CCC[C@H]1B(O)O` [Val-Boro-Pro], the hematopoiesis entry in data set [2] is reported as “stimulated hematopoiesis”.

On to diprotin A, for which the “degradation of GRF in plasma to GRF[3-44]” value in data set [3] is listed as “prevented”.
